This data set in a line: single dose i.p. toxicity study in rats.

Procedure: A single dose i.p. toxicity study in rats was carried out. […] The minimal lethal dose is thus above 100 mg/kg body weight for these compounds.

Consider `CC1=C(/C=C/C(C)=C/C=C/C(C)=C/C(=O)N[C@@H](CS(=O)O)C(=O)O)C(C)(C)CCC1` (stereo in doubt) [I-2, N-(all-trans-Retinoyl)-L-cysteinesulfinic acid], for which the minimal lethal dose result is “above 100 mg/kg body weight”.

Source of the values: patent publication EP1534672B1, “RETINOL DERIVATIVES, THEIR USE IN THE TREATMENT OF CANCER AND FOR POTENTIATING THE EFFICACY OF OTHER CYTOTOXIC AGENTS” (priority 2002, dated 2004).
